Source: ChEMBL document CHEMBL1153930, “(-)-Dibromophakellin: an alpha2B adrenoceptor agonist isolated from the Australian marine sponge, Acanthella costata” (Bioorg Med Chem, 2009)
Active and inactive are the calls of the source. No cut-off for these calls is given here.

What was measured:
[1] = biological target: T1, Alpha-2B adrenergic receptor (Homo sapiens) (UniProt P18089); assay: Agonist activity at human adrenergic alpha2B receptor expressed in HEK293 cells coexpressing Gqi5 protein up to 83 uM by FLIPR assay; format: functional, cell-based
T1 sequence (whole entry): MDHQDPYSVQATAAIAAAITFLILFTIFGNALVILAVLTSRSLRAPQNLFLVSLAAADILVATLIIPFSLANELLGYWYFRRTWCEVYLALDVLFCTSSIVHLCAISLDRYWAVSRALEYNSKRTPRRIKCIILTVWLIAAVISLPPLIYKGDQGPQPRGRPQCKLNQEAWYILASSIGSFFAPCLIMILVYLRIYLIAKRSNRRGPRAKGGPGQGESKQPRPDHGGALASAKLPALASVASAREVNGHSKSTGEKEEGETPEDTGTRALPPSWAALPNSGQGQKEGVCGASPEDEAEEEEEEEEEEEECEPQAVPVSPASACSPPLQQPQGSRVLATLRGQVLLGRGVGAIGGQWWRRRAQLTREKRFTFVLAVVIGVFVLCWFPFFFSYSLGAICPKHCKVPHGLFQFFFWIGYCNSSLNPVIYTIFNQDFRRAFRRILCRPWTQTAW

[2] = biological target: T2, Alpha-2B adrenergic receptor (Homo sapiens, UniProt P18089); assay: Agonist activity at human adrenergic alpha2B receptor expressed in HEK293 cells coexpressing Gqi5 protein by FLIPR assay; format: functional, cell-based
T2 sequence (P18089 whole entry): T1 sequence (whole entry)

Activity [1] | EC50 [2] [µM] | SMILES
inactive | – | NC1=N[C@]23CCCN2C(=O)c2cc(-c4ccccc4)c(-c4ccccc4)n2[C@@H]3N1
inactive | – | NC1=N[C@]23CCCN2C(=O)c2cccn2[C@@H]3N1
inactive | – | NC1=N[C@]23CCCN2C(=O)c2cc(Br)c(-c4ccccc4)n2[C@@H]3N1
inactive | – | NC1=N[C@]23CCCN2C(=O)c2cc(Br)cn2[C@@H]3N1
– | 4.2 | NC1=N[C@H]2n3c(cc(Br)c3Br)C(=O)N3CCC[C@]23N1 [DIBROMOPHAKELLIN]
